Test results reported in patent US12565673B2, “Methods for the design of nonallosteric sirtuin activating compounds” (Chakrabarti Advanced Technology, LLC, priority 2020, dated 2026).

Target: T1, hSirt3^102-399 (Homo sapiens, UniProt Q9NTG7)
T1 construct: hSirt3^102-399 was expressed in E. coli Arctic Express (DE3) cells; His-tag (only implied by the HisTrap / imidazole purification); made in house; host or cells: E. coli Arctic Express (DE3)
T1 sequence (Q9NTG7 102-399): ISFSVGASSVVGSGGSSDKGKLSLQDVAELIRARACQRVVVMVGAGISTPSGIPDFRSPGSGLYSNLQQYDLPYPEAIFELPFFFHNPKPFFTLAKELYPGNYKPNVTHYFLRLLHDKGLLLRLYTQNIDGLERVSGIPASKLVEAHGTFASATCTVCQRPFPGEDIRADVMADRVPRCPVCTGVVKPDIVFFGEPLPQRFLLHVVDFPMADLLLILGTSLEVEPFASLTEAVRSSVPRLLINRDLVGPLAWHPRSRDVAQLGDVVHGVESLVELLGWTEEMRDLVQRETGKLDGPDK
Assay: hSirt3 ligand binding assay by microscale thermophoresis (MST)
Conditions: Sirt3.Ac-MnSOD complex (FIG. 9)
Protocol: The binding affinities of ligands to complexes in the catalytic mechanism of SIRT3/MnSOD peptide substrate were measured using microscale thermophoresis (MST; FIG. 9, FIG. 10).
Briefly, the protein conjugation was done in 1×PBS pH 7.4, 0.05% Pluronic F-127, and the labeled protein was buffer exchanged into 47 mM Tris-HCl pH 8.0, 129 mM NaCl, 2.5 mM KCl, 0.94 mM MgCl2, 5% DMSO, 0.05% Tween-20. We used 2 nM labeled hSirt3 and titrated with varying concentrations of the modulators in the absence and presence of various concentrations of substrates, products and intermediates. The thermophoresis was measured (excitation/emission 653/672 nm) using a Monolith NT. […] Dissociation constants (Kd) were determined using GraFit7 (Erithacus Software) by nonlinear fitting.

C=CCc1ccc(O)c(-c2ccc(O)c(CC=C)c2)c1 [HKL, 5, 3′-Diallyl-2, 4′-dihydroxybiphenyl]
Kd: < 10 µM
